# Results as given in patent publication US20100113517A1, “METHOD FOR THE TREATMENT OF FABRY DISEASE USING PHARMACOLOGICAL CHAPERONES” (AMICUS THERAPEUTICS, INC., priority 2007, published 2010).
# Counter-ions that a name gives are not always drawn.
# Legend:
# [1] = including peripheral neuropathy and severe gastrointestinal effects; even at 150 mg/day; cited from earlier work
# GL-3 = GL-3 analysis from mouse tissues (LC-MS/MS); format: in vivo; details: male R301Q Tg/KO mice, 30 mg/kg daily per os, 4 weeks
# Method: Drug Administration. […] For the GL-3 assay, two groups of 6-7 male […] After dosing, indicated tissues were harvested and treated as described below. GL-3 analysis from mouse tissues. Tissue samples were washed free of blood, weighed and homogenized with a solvent system in a FastPrep® system. Homogenate was then extracted using Solid Phase Extraction on a C18 cartridge. The eluent was evaporated and reconstituted prior to injection onto a LC/MS system. Nine GL3 isoforms were measured using positive ESI-MS/MS. LC separation was achieved on a Zorbax C18 column.
# [2] = biological target: T1, human mutant α-Gal A (R301Q) (Homo sapiens, UniProt P06280, R301Q); test: α-Gal A (GLA) enzyme activity in tissue lysates of R301Q Tg/KO mice; format: in vivo; details: 4 weeks
# T1 construct: Tissue lysates were prepared by homogenizing about 50 mg tissue in assay buffer; from tissue; host or cells: heart, kidney, skin, liver and spleen of R301Q Tg/KO mice (human transgene, mouse α-Gal A knocked out)
# T1 sequence (P06280 32-429 R301Q): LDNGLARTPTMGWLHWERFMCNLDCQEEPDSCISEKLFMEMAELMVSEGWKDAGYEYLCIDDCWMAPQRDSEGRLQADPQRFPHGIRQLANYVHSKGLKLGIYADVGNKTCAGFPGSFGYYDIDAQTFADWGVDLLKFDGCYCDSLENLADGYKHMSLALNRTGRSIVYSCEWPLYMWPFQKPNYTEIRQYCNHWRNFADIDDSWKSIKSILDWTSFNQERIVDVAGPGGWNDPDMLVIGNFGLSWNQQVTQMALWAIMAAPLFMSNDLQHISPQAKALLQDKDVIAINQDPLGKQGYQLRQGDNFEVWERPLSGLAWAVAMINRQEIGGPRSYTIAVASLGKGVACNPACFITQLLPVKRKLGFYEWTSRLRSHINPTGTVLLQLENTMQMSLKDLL
# Source text: Transgenic mice that exclusively express human mutant α-Gal A (R301Q) in an α-Gal A knock-out background (TgM/KO mice) were established and evaluated. This Example serves as a biochemical model to study and evaluate pharmacological chaperone therapy for Fabry disease, which is specific for those missense mutations that cause misfolding of α-Gal A.
# Mice. Fabry R301Q Tg/KO mice were a gift from Dr. Robert Desnick. Male C57BL/6 mice were purchased from Taconic Farms, Germantown, N.Y. and housed in wire cages at 4 mice per cage. All studies were conducted at 8 weeks of age and conducted under strict adherence to IACUC guidelines.
# Drug Administration. […] After dosing, indicated tissues were harvested and treated as described below.
# Enzyme activity assay. After dosing, indicated tissues were harvested and frozen. Tissue lysates were prepared by homogenizing about 50 mg tissue in assay buffer. 2.5 μL lysate was combined with 17.5 μL of the assay buffer and 50 μL of the respective substrate solution (same as detailed in sections above). Reaction mixtures were then incubated at 37° C. for 1 hr. Afterward, 70 μL stop solution (0.4 M glycine, pH 10.8) was added, and fluorescence was read on a Victor plate reader at 355 nm excitation and 460 nm emission. Enzyme activity in the lysates was background subtracted, and normalized for protein concentration using the MicroBCA Protein Assay Kit (Pierce). A 4-MU standard curve was run (same as detailed in sections above) for conversion of fluorescence data to absolute enzyme activity expressed as nmoles/mg protein/hr or further normalized to % of untreated activity.
# [3] = male R301Q Tg/KO mice, 30 mg/kg daily oral gavage, vs. untreated
"increase in mutant GLA activity, heart [2, 3]","increase in mutant GLA activity, kidney [2, 3]","increase in mutant GLA activity, liver [2, 3]","increase in mutant GLA activity, skin [2, 3]","increase in mutant GLA activity, spleen [2, 3]","increase in mutant GLA activity, all treated tissues ([2]; male and female R301Q Tg/KO mice, 30 mg/kg/day in drinking water)",Compound,adverse events [1],"GL-3 levels, kidney tissue (GL-3)","reduction of GL-3 levels, heart tissue (GL-3)","reduction of GL-3 levels, skin tissue (GL-3)"
–,–,–,–,–,–,CCCCN1C[C@H](O)[C@@H](O)[C@H](O)[C@H]1CO [NB-DNJ],numerous adverse events,–,–,–
11±0.1 -fold,5.5±0.3 -fold,3±0.02 -fold,6.2±0.7 -fold,5±0.1 -fold,comparable increases,"OCC1NCC(O)C(O)C1O (stereo not shown) [DGJ HCl, migalastat hydrochloride]",–,"trend towards reduction, but did not reach statistical significance",1.6 -fold,2.2 -fold
